Results on 28 molecules are retold here after PubChem BioAssay AID320 (DTP/NCI, 2004).

This assay deals with BDF1 mice, P329 reticulum cell sarcoma ip, survival T/C. As to the kind of experiment: NCI In Vivo Anticancer Drug Screen. Data for tumor model P329 Reticulum Cell Sarcoma (intraperitoneal) in B6D2F1 (BDF1) mice. The conditions noted are these: endpoint: median survival time, schedule: Q01DX010 (ip), vehicle: saline, higher = longer survival. On the procedure:
The antitumor activity of compounds was measured in mice bearing transplantable tumors. Survival or tumor size were measured and the results are expressed as the measurement made in the treated group (T) divided by the measurement made in the vehicle treated control group (C). The tumor model used in this assay is P329 Reticulum Cell Sarcoma (intraperitoneal) in B6D2F1 (BDF1) mice

Values joined by “and” are separate entries in the source; they are usually repeats but may differ in a detail not shown here. Equal values may be shown once. Toxic doses and inconclusive results are not listed.

`c1ccc(CNc2ncnc3[nH]ncc23)cc1`: the T/C is 103 % of control and 115 % of control (dose: 8.0 mg/kg/injection); 107 % of control (dose: 16.0 mg/kg/injection).
Take `CC/C(=C(/CC)c1ccc(O)cc1)c1ccc(O)cc1`: the T/C was 107 % of control (dose: 12.5 mg/kg/injection); 96 % of control and 107 % of control (dose: 25.0 mg/kg/injection); 100 % of control and 103 % of control (dose: 50.0 mg/kg/injection); 88 % of control (dose: 100.0 mg/kg/injection).
Consider `CS(=O)(=O)OCCCl`, for which the T/C (dose: 9.4 mg/kg/injection) is 107 % of control; the T/C (dose: 18.8 mg/kg/injection) is 96 % of control and 100 % of control; the T/C (dose: 37.5 mg/kg/injection) is 92 % of control and 107 % of control; the T/C (dose: 75.0 mg/kg/injection) was 92 % of control and 107 % of control.
Take `O=P1(N(CCCl)CCCl)NCCCO1` (stereo not given): the T/C is 106 % of control and 121 % of control (dose: 11.3 mg/kg/injection); 86 % of control (dose: 22.5 mg/kg/injection).
Take `N#CCSc1ncnc2nc[nH]c12`: the T/C by setting is: (dose: 15.0 mg/kg/injection) 150 % of control; (dose: 30.0 mg/kg/injection) 115 % of control; (dose: 120.0 mg/kg/injection) 173 % of control.
For `N=C(N)SCc1c2ccccc2c(CSC(=N)N)c2ccccc12`, the T/C by setting is: (dose: 2.5 mg/kg/injection) 112 % of control; (dose: 5.0 mg/kg/injection) 118 % of control; (dose: 10.0 mg/kg/injection) 106 % of control; (dose: 20.0 mg/kg/injection) 118 % of control.
`CO[C@H](C(=O)[C@@H](O)[C@@H](C)O)[C@@H]1Cc2cc3cc(OC4CC(OC5CC(O)C(O)C(C)O5)C(O)C(C)O4)c(C)c(O)c3c(O)c2C(=O)[C@H]1OC1CC(OC2CC(OC3CC(C)(O)C(O)C(C)O3)C(O)C(C)O2)C(O)C(C)O1` (stereo not given in full): the T/C was 103 % of control (dose: 0.5 mg/kg/injection) and 90 % of control (dose: 1.0 mg/kg/injection).
Take `CS(=O)(=O)OCCC(=O)N1CCN(C(=O)CCOS(C)(=O)=O)CC1`: the T/C is 117 % of control (dose: 25.0 mg/kg/injection) and 89 % of control (dose: 200.0 mg/kg/injection).
With `O=C(Nc1ccc(NC2=NCCN2)cc1)c1ccc(C(=O)Nc2ccc(NC3=NCCN3)cc2)cc1`, the T/C is 153 % of control and 157 % of control (dose: 2.0 mg/kg/injection); 173 % of control and 176 % of control (dose: 4.0 mg/kg/injection); 184 % of control and 203 % of control (dose: 8.0 mg/kg/injection); 88 % of control and 92 % of control (dose: 16.0 mg/kg/injection).
Take `CN(C)/N=N/c1nc[nH]c1C(N)=O`: the T/C was 121 % of control (dose: 25.0 mg/kg/injection); 169 % of control (dose: 100.0 mg/kg/injection); 100 % of control and 110 % of control (dose: 200.0 mg/kg/injection).
Consider `CCn1cnc2c(=S)nc[nH]c21`, for which the T/C is, setting by setting: (dose: 15.6 mg/kg/injection) 111 % of control and 114 % of control; (dose: 31.3 mg/kg/injection) 114 % of control and 123 % of control; (dose: 125.0 mg/kg/injection) 89 % of control and 100 % of control.
`N=C(N)c1ccc(Nc2ccc(C(=N)N)cc2)cc1`: the T/C was 93 % of control (dose: 1.5 mg/kg/injection), 87 % of control (dose: 3.0 mg/kg/injection), 96 % of control (dose: 6.0 mg/kg/injection) and 90 % of control (dose: 12.0 mg/kg/injection).
`CC[n+]1c(-c2ccccc2)c2cc(N)ccc2c2ccc(N)cc21`: the T/C (dose: 2.5 mg/kg/injection) was 114 % of control and the T/C (dose: 20.0 mg/kg/injection) is 107 % of control.
As for `C1CN1c1nc(N2CC2)nc(N2CC2)n1`, the T/C is 96 % of control and 108 % of control (dose: 0.13 mg/kg/injection); 115 % of control (dose: 0.25 mg/kg/injection); 170 % of control (dose: 0.5 mg/kg/injection); 150 % of control (dose: 1.0 mg/kg/injection).
As for `CS(=O)(=O)OCCN(CCOS(C)(=O)=O)c1ccc(N=O)cc1`, the T/C (dose: 1.0 mg/kg/injection) was 107 % of control.
As for `CC[C@]1(O)C[C@H]2CN(CCc3c([nH]c4ccccc34)[C@@](C(=O)OC)(c3cc4c(cc3OC)N(C=O)[C@H]3[C@@](O)(C(=O)OC)[C@H](OC(C)=O)[C@]5(CC)C=CCN6CC[C@]43[C@@H]65)C2)C1`, the T/C (dose: 0.03 mg/kg/injection) was 100 % of control and 105 % of control; the T/C (dose: 0.06 mg/kg/injection) is 104 % of control and 113 % of control; the T/C (dose: 0.12 mg/kg/injection) is 114 % of control.
As for `CO[C@@H]1[C@@H](OC2OC(C)C(OC3CC(C)(O)C(OC(=O)CC(C)C)C(C)O3)C(N(C)C)C2O)[C@@H](CC=O)C[C@@H](C)C(=O)/C=C/C2O[C@H]2C[C@@H](C)OC(=O)C[C@H]1OC(C)=O` (stereo not given in full), the T/C is 100 % of control (dose: 37.5 mg/kg/injection); 100 % of control and 107 % of control (dose: 75.0 mg/kg/injection); 103 % of control and 107 % of control (dose: 150.0 mg/kg/injection); 107 % of control and 114 % of control (dose: 300.0 mg/kg/injection).
On to `O=c1[nH]c(=O)n(C2CC(O)C(CO)O2)cc1F` (stereo not given), for which the T/C is, setting by setting: (dose: 5.0 mg/kg/injection) 103 % of control; (dose: 10.0 mg/kg/injection) 110 % of control and 111 % of control; (dose: 20.0 mg/kg/injection) 123 % of control; (dose: 40.0 mg/kg/injection) 150 % of control; (dose: 80.0 mg/kg/injection) 161 % of control.
Take `CN(C)c1ccc(/C=C/c2ccnc3ccccc23)cc1`: the T/C runs as follows: (dose: 5.0 mg/kg/injection) 100 % of control and 103 % of control; (dose: 10.0 mg/kg/injection) 92 % of control and 107 % of control; (dose: 20.0 mg/kg/injection) 96 % of control and 103 % of control; (dose: 40.0 mg/kg/injection) 92 % of control and 100 % of control.
In the case of `O=C(Nc1ccc(C2=NCCN2)cc1)c1ccc(C(=O)Nc2ccc(C3=NCCN3)cc2)c([N+](=O)[O-])c1`, the T/C runs as follows: (dose: 6.0 mg/kg/injection) 153 % of control and 175 % of control; (dose: 8.0 mg/kg/injection) 188 % of control and 212 % of control; (dose: 18.0 mg/kg/injection) 91 % of control.
As to `COC(=O)[C@@H]1c2cc3c(c(O)c2[C@@H](OC2OC(C)C(OC)C(C)(OC)C2OC)C[C@]1(C)O)C(=O)c1c(O)cc2c(c1C3=O)O[C@H]1O[C@]2(C)[C@H](O)[C@@H](N(C)C)[C@@H]1O` (stereo not given in full), the T/C was 100 % of control (dose: 62.5 micrograms/kg/injection); 93 % of control and 100 % of control (dose: 125.0 micrograms/kg/injection); 90 % of control and 100 % of control (dose: 250.0 micrograms/kg/injection); 93 % of control and 100 % of control (dose: 500.0 micrograms/kg/injection).
Take `O=C(Nc1ccc(C2=NCCN2)cc1)c1cccc(C(=O)Nc2ccc(C3=NCCN3)cc2)c1`: the T/C is 150 % of control and 176 % of control (dose: 16.0 mg/kg/injection); 169 % of control and 180 % of control (dose: 32.0 mg/kg/injection); 184 % of control and 196 % of control (dose: 64.0 mg/kg/injection).
Consider `Nc1ncnc2[nH]ncc12`, for which the T/C (dose: 1.5 mg/kg/injection) was 107 % of control; the T/C (dose: 3.0 mg/kg/injection) is 111 % of control; the T/C (dose: 6.0 mg/kg/injection) is 123 % of control; the T/C (dose: 12.0 mg/kg/injection) was 88 % of control and 103 % of control.
Take `CC(CCC(C)OS(C)(=O)=O)OS(C)(=O)=O` (stereo not given): the T/C is 100 % of control and 107 % of control (dose: 2.0 mg/kg/injection); 103 % of control and 107 % of control (dose: 4.0 mg/kg/injection); 114 % of control and 115 % of control (dose: 8.0 mg/kg/injection).
On to `CCN(CC)CCNc1ccc(C)c2sc3ccccc3c(=O)c12`, for which the T/C is, setting by setting: (dose: 25.0 mg/kg/injection) 111 % of control and 114 % of control; (dose: 100.0 mg/kg/injection) 115 % of control.
Consider `Cc1cc(N(CCCl)CCCl)ccc1N=Nc1ccccc1C(=O)O`, for which the T/C is 107 % of control and 114 % of control (dose: 5.0 mg/kg/injection); 114 % of control (dose: 10.0 mg/kg/injection).
For `O=c1cnn(C2OC(CO)C(O)C2O)c(=O)[nH]1` (stereo not given), the T/C (dose: 200.0 mg/kg/injection) was 116 % of control.
With `O=C(O)CCCc1ccc(N(CCCl)CCCl)cc1`, the T/C (dose: 3.13 mg/kg/injection) is 96 % of control and 108 % of control; the T/C (dose: 6.25 mg/kg/injection) is 103 % of control and 108 % of control; the T/C (dose: 12.5 mg/kg/injection) was 116 % of control and 119 % of control.
